For one molecule, Bmax results are on record in publication PMC3610872, “Full and Partial Agonists of Thromboxane Prostanoid Receptor Unveil Fine Tuning of Receptor Superactive Conformation and G Protein Activation” (PLoS ONE, 2013).

Numbering of substitutions follows the chain as printed. Marks after values point to notes of the source that are not given here.

One test addresses T1, WT human TP receptor (Homo sapiens, UniProt P21731).
T1 construct: expressed in transfected cells; host or cells: HEK293
T1 sequence (P21731 1-343): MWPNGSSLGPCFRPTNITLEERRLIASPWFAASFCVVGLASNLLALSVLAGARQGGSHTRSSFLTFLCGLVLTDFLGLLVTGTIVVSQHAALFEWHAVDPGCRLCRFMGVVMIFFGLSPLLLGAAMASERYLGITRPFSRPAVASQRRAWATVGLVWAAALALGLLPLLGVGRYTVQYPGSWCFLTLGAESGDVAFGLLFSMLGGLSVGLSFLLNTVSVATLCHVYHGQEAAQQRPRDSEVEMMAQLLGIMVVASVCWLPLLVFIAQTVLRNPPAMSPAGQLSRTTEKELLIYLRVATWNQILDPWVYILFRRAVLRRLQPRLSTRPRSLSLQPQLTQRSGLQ
The experiment in a line: [3H]SQ29,548 radioligand binding (mixed-type and heterologous competition), WT receptor. To be noted: HEK293 cells, value ±%CV. Here is the method: (§1) Receptor expression and functional activity were monitored 48 hours after transfection. […] Heterologous competition studies involved concentrations of the indicated unlabeled ligands extending from 0.1 nM to 30 µM. After 30 min incubation at 25 °C, the reaction was stopped by aspiration of the medium, cells were washed with ice-cold PBS containing 0.2% (w/v) BSA and lysed in 0.5 N NaOH. Radioactivity was measured by liquid scintillation counting. Binding data were analyzed as described in Data and Statistical Analysis. Quantification of the total labeled inositol phosphates (IP) accumulation was performed using a conventional gravity flow column chromatography, as described previously, [19]. Briefly, the day before the assay, cells were labeled with 0,5 µCi of [myo-2-^3H]inositol (17 Ci/mmol) for 18–20 hours in serum-free, inositol-free DMEM containing 20 mM HEPES buffer, pH 7.4, and 0.5% (w/v) Albumax I. The day of the assay, media was replaced with serum-free, inositol-free DMEM containing 25 mM LiCl and cells stimulated for 30 min with the indicated agonists. After removal of the medium, cells were lysed with 10 mM formic acid and lysates were applied onto an anion exchange AG 1X-8 column, formate form, 200–400 mesh. The total IP fraction was then eluted with 2 M ammonium formate/formic acid buffer at pH 5 and radioactivity determined by liquid scintillation counting. Rescue experiments were performed essentially as above, except for a 18 hours incubation step with 1 µΜof SQ29,584 followed by its removal by washing three times with ice-cold PBS containing 1 mM MgCl2 and 0.1 mM CaCl2 before starting the experiment.
(§2) All average results are presented as mean±S.E. When indicated, ANOVA followed by post-hoc test for multiple comparisons was performed. Data from radioligand binding were evaluated by a nonlinear, least-squares curve-fitting procedure using GraphPad Prism version 4, implemented with the n-ligand m-binding site model, as described in the LIGAND computer program. Concentration-response curves were evaluated using Prism 4, which use the four parameters logistic model as described in the ALLFIT program. Parameter errors are all expressed in percentage coefficient of variation (%CV) and calculated by simultaneous analysis of at least two different independent experiments performed in duplicate or triplicate. Parameter comparison has been performed on the base of the F test for extra sum of square principle. All curves shown are computer generated.
(§3) Thus, transfection conditions were adjusted to secure equivalent levels of receptor expression for WT and mutants as previously described, [17], [19]. […] All the experiments were conducted within this range of receptor expression, if not specified differently.

Test [1] addresses T2, E129V mutant human TP receptor (Homo sapiens, UniProt P21731, E129V).
T2 construct: expressed in transfected cells; host or cells: HEK293
T2 sequence (P21731 1-343 E129V): T1 sequence (P21731 1-343) with E129V
Nature of the test: [3H]SQ29,548 radioligand binding (mixed-type and heterologous competition), E129V mutant. As to conditions: HEK293 cells, E129V, value ±%CV. On the procedure: as §1, §2, §3

In test [2] the target is T3, E240V mutant human TP receptor (Homo sapiens, UniProt P21731, E240V).
T3 construct: expressed in transfected cells; host or cells: HEK293
T3 sequence (P21731 1-343 E240V): T1 sequence (P21731 1-343) with E240V
Nature of the test: [3H]SQ29,548 radioligand binding (mixed-type), E240V mutant. To be noted: HEK293 cells, value ±%CV. On the procedure: as §1, with “Rescue experiments were performed essentially as above, except for a 18 hours incubation step with 1 µΜof SQ29,584 followed by its removal by washing three times with ice-cold PBS containing 1 mM MgCl2 and 0.1 mM CaCl2 before starting the experiment.” left out
as §2, with “Parameter comparison has been performed on the base of the F test for extra sum of square principle. All curves shown are computer generated.” left out

For test [3], the target named is T4, E129/240V double mutant human TP receptor (Homo sapiens, UniProt P21731, E129V/E240V).
T4 construct: expressed in transfected cells; host or cells: HEK293
T4 sequence (P21731 1-343 E129V/E240V): T1 sequence (P21731 1-343) with E129V, E240V
Nature of the test: [3H]SQ29,548 radioligand binding (mixed-type), E129/240V double mutant. To be noted: HEK293 cells, no Gαq, before SQ29,548 rescue, value ±%CV. Here is the method: Receptor expression and functional activity were monitored 48 hours after transfection. […] Heterologous competition studies involved concentrations of the indicated unlabeled ligands extending from 0.1 nM to 30 µM. After 30 min incubation at 25 °C, the reaction was stopped by aspiration of the medium, cells were washed with ice-cold PBS containing 0.2% (w/v) BSA and lysed in 0.5 N NaOH. Radioactivity was measured by liquid scintillation counting. Binding data were analyzed as described in Data and Statistical Analysis. Quantification of the total labeled inositol phosphates (IP) accumulation was performed using a conventional gravity flow column chromatography, as described previously, [19]. […] The total IP fraction was then eluted with 2 M ammonium formate/formic acid buffer at pH 5 and radioactivity determined by liquid scintillation counting. […]
All average results are presented as mean±S.E. When indicated, ANOVA followed by post-hoc test for multiple comparisons was performed. Data from radioligand binding were evaluated by a nonlinear, least-squares curve-fitting procedure using GraphPad Prism version 4, implemented with the n-ligand m-binding site model, as described in the LIGAND computer program. Concentration-response curves were evaluated using Prism 4, which use the four parameters logistic model as described in the ALLFIT program. […]

`O=C(O)CCC/C=C\C[C@@H]1[C@H](CNNC(=O)Nc2ccccc2)[C@@H]2CC[C@H]1O2` [[^3H]SQ29,548, [5,6-^3H]SQ29,548]: the Bmax was determined as 0.90±46 pmol/mg prot on WT human TP receptor (Gαq 3x); 0.95±39 pmol/mg prot on WT human TP receptor (Gαq 5x); 0.44±32 pmol/mg prot at WT human TP receptor (no Gαq cotransfection); 0.38±21 pmol/mg prot in test [1] (Gαq 3x); 0.39±30 pmol/mg prot in test [1] (Gαq 5x); 0.53±16 pmol/mg prot in test [1] (no Gαq cotransfection). The Bmax is 0.65±52 pmol/mg prot in test [2] (Gαq 3x), 0.49±34 pmol/mg prot in test [2] (Gαq 5x), 0.97±31 pmol/mg prot in test [2] (no Gαq cotransfection) and 0.04±68 ^b pmol/mg prot in test [3].
